Experimental data: patent US9650389B2, “8-oxoprotoberberine derivative or pharmaceutically acceptable salt thereof, preparation method therefor and pharmaceutical composition for preventing or treating diseases associated with activity of NFAT5, containing same as active ingredient” (Korea Research Institute of Chemical Technology, priority 2013, dated 2017)

Assays:
[1] = Metabolic stability in human liver microsomes; type: in vitro ADME; settings: human liver microsome fractions, 30 minutes
Description: (§1) Particularly, each compound was added to rat and human liver microsome fractions, followed by culture for 30 minutes. Each compound was administered via intravenous injection (iv) and oral-administration (po) to rat at the concentration of 5 mg/kg, followed by making pharmacokinetic profiles.

[2] = test system: NFAT5 transcript BGT1 and AR; assay: NaCl-mediated up-regulation of NFAT5 transcripts (hypertonic condition), RAW264.7 cells, real-time PCR; type: cell-based, mouse; settings: 1 μM pre-treatment 1 hour, NaCl 45 mM 3 hours
Description: It was investigated whether or not the factors regulated by NFAT5 under the hypertonic condition could be affected by the compound of Example 1. Particularly, RAW264.7 cells were distributed in a 6-well plate at the density of 1.5×10^5 cells/well, followed by culture and stabilization in 10% FBS-RPMI 1640 medium. The cells were pre-treated with the compound of Example 1 (1 μM) for 1 hour, and then stimulated with NaCl (45 mM) for 3 hours. mRNA was extracted from the cells, from which cDNA was synthesized.

IL-6 and TNF-α = assay: Inflammatory cytokine expression in LPS-treated human mononuclear cells (PBMC), real-time PCR; type: cell-based; settings: LPS 1 μg/ml, compound 1 μg/ml, 6 hours, FIG. 11
Description: Particularly, PBMC separated from healthy human blood was treated with LPS (1 μg/ml). The cells were treated with the compound of the present invention at the concentration of 1 μg/ml, followed by culture for 6 hours to investigate whether or not the induced inflammatory cytokine secretion was inhibited by the compound. RNA was separated from the cells, from which the transcription levels of IL-6 and TNF-α were quantified by real-time PCR. The results are shown in FIG. 11 (NC: negative control, PC: positive control).

Th17 cells = assay: Differentiation of mouse naïve T cells into Th17 cells; type: cell-based; settings: Rag2 KO/OVA-TCRtg naïve T cells, 3 days, secreted cytokine protein; compared with berberine; FIG. 12
Description: Particularly, the transgenic mouse (Rag2 KO/OVA-TCRtg) naïve T cells were cultured under the condition of Th17 cell differentiation (treated with IL-6, IL-1β, and TGF-β along with APC cells) for 3 days. Compared with berberine known as a Th17 differentiation inhibitor, the inhibitory effect of the NFAT5 inhibitor on the differentiation of Th17 was measured by quantifying the secreted cytokine protein. Cell survival rate under the same condition was also measured by CCK-8.

[3] = Cytotoxicity test (WST-8), VERO; type: cell-based; settings: African green monkey, VERO kidney cells
Description: (§2) To investigate the cytotoxicity of the derivative of the present invention, 5 kinds of cell lines (VERO: African green monkey kidney cell line, HFL-1: human embryonic lung cell line, L929: NCTC clone 929, mouse fibroblast cell line, NIH 3T3: mouse embryonic fibroblast cell line, and CHO-K1: Chinese hamster ovary cell line) were distributed in a 96-well plate at the density of 1×10^4 cells/well, which were treated with the compound of the present invention for 24 hours. The water-soluble tetrazolium salt WST-8 was added thereto. The orange colored formazan dye degraded by dehydrogenase in the live cells was read, followed by nonlinear regression to determine 50% growth inhibition concentration.

NFAT5 [4] = assay: NFAT5 protein in LPS-stimulated spleen cells of collagen-induced arthritis mice; type: in vivo; settings: CIA mouse spleen cells treated with LPS; FIG. 9
Text: Particularly, the spleen cells of the mouse having arthritis induced by collagen by the same manner as described in Example 11 were stimulated with LPS. Protein was extracted from the cells, followed by quantification of NFAT5 protein.

[5] = Cytotoxicity test (WST-8), HFL-1; type: cell-based; settings: human, HFL-1 embryonic lung cells; HFL-1, 24 hours
Description: as §2

[6] = Metabolic stability in rat liver microsomes; type: in vitro ADME; settings: rat liver microsome fractions, 30 minutes
Description: as §1

NFAT5 [7] = assay: NFAT5 transcription and nuclear localization in LPS-stimulated RAW264.7 cells; type: cell-based, mouse; settings: FIG. 4
Description: Particularly, RAW264.7 cells were distributed in a 12-well plate at the density of 1.5×10^5 cells/well, followed by culture in 10% FBS-RPMI 1640 medium. The cells were stabilized for a day. The compound of Example 1 was treated thereto at the concentration of 1 μM for 1 hour, and then the cells were stimulated with LPS for 12 hours. 12 hours later, mRNA was extracted from the cells, and cDNA was synthesized therefrom. PCR (real-time PCR) was performed to measure the expression level of NFAT5 mRNA. The migration of the transcription factor NFAT5 from the cytoplasm to the nucleus was investigated. Particularly, RAW264.7 cells were distributed in a 6-well plate at the density of 6×10^5 cells/well, followed by culture in 10% FBS-RPMI 1640 medium. The cells were pre-treated with the compound 6 (1 μM) for 1 hour, and treated with LPS (1 μg/ml) for 24 hours. Cytoplasm and nucleus proteins were separated from the stimulated cells and the levels of NFAT5 and p65 protein (NF-kB subunit) were measured.

[8] = Cytotoxicity test (WST-8), NIH 3T3; type: cell-based; settings: mouse, NIH 3T3 embryonic fibroblast cells; NIN3T3, 24 hours
Description: as §2

NFAT5 [9] = biological target: T1, NFAT5 (Mus musculus, UniProt Q9WV30); assay: NFAT5 reporter screening (GFP, HCS) in LPS-treated Raw264.7 cells; type: cell-based; settings: for Inhibition rate of NFAT5 transcription (%): Raw264.7 reporter, LPS 1 μg/ml, 48 hours
T1 construct: endogenous in cells; host or cells: RAW264.7
T1 sequence (Q9WV30 whole entry): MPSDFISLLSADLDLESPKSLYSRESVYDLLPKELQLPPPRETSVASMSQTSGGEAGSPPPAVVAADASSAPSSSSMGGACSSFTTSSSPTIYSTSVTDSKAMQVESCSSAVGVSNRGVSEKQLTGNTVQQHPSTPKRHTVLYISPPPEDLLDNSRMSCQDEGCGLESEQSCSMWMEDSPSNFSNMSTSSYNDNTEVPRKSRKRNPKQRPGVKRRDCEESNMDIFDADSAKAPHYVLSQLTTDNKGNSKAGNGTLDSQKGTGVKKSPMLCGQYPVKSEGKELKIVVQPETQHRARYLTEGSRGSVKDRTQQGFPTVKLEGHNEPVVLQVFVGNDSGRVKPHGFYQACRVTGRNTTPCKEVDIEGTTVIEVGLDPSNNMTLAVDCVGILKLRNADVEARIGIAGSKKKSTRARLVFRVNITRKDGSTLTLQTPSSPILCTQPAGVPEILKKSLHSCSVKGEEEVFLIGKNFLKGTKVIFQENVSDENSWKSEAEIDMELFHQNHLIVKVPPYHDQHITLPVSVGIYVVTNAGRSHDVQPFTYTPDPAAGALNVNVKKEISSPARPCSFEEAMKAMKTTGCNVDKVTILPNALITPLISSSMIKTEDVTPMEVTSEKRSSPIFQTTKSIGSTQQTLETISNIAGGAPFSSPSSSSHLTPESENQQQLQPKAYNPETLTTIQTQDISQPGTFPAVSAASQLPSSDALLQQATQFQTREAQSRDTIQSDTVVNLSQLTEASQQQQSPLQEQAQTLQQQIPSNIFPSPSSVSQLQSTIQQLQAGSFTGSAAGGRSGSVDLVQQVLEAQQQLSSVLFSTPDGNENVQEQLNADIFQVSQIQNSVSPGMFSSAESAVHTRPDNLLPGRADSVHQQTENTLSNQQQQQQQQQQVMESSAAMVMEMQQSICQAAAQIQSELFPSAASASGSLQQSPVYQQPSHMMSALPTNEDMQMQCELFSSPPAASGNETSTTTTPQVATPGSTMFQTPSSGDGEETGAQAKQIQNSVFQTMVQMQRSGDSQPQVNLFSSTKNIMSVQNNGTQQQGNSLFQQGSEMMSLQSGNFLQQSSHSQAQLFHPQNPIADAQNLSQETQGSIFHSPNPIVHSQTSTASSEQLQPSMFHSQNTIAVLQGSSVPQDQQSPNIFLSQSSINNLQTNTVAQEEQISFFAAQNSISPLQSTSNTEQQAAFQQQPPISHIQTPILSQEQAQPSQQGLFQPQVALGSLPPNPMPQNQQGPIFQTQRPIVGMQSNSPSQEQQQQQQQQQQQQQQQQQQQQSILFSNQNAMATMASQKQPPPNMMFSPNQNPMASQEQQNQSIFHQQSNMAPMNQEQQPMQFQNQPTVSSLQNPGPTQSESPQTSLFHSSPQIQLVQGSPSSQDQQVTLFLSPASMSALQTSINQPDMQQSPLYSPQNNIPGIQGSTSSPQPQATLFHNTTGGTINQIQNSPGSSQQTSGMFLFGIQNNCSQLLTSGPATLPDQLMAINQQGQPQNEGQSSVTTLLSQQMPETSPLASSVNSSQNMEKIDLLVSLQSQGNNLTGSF
Description: To investigate whether or not the derivative of the present invention could inhibit the transcriptional activity of NFAT5, NFAT5 reporter screening was performed. A plasmid vector was constructed by eliminating CMV promoter sequence from the backbone and inserting NFAT5 binding site sequence ([…]) instead. Raw264.7 cells transfected with the vector were cultured in 10% FBS-PRMI (supplemented with 500 μg/ml G418). The cells were distributed in a 96-well plate at the density of 3×10^3 cells/well, followed by further culture for one more day. The cells were treated with LPS at the concentration of 1 μg/ml for 48 hours. Then, the cells were fixed and the expression level of GFP was measured by HCS fluorescence image (Thermo, ArrayScan^VTI).

NFATc = assay: NFAT (NFATc) transcriptional activity, THP1-XBlue-MD2-CD14 cells, SEAP; type: cell-based; settings: LPS 1 μg/ml, 24 hours, FIG. 2B
Description: To evaluate the transcriptional activity of NFAT, THP1-XBlue-MD2-CD14 cells were cultured in 10% FBS-RPMI (supplemented with 200 μg/ml of Zeocin and 250 μg/ml of G418). First, the cells were distributed in a 96-well plate at the density of 2×10^4 cells/well, followed by culture. 1 μg/ml of LPS and the compound of the invention were added thereto, followed by culture for 24 hours. 20 μl of the supernatant was added with 180 μl of secreted embryonic alkaline phosphatase (SEAP) detection medium, followed by culture for 2 hours. Then, OD655 was measured.

COc1ccc2c(Cc3ccccc3F)c3n(c(=O)c2c1OC)CCc1cc2c(cc1-3)OCO2 [Example 1, 13-(2-fluorobenzyl)-9,10-dimethoxy-5H-[1,3]dioxolo[4,5-g]isoquinolino[3,2-a]isoquinoline-8(6H)-one]
remaining compound, Human (%) [1]: 68.2 ± 6.1%
NaCl-mediated up-regulation of BGT1 transcript ([2]; FIG. 5A): not changed
NaCl-mediated up-regulation of AR transcript ([2]; FIG. 5B): not changed
expression of cytokines (IL-6, TNF-α transcription levels) (IL-6 and TNF-α): inhibit the expression of cytokines
inhibitory effect on the differentiation of Th17 (Th17 cells): inhibitory effect on the differentiation of Th17 as similar as berberine
GI50 at 24 h [3]: 84.2 µM
expression of NFAT5 (NFAT5 [4]): suppressed
GI50 at 24 h [5]: 26.1 µM
remaining compound, Rat (%) [6]: 35 ± 3%
increase of NFAT5 expression caused by LPS (from the phase of transcript) (NFAT5 [7]; 1 μM for 1 hour, LPS 12 hours, real-time PCR): suppressed
NFAT5 protein level increased by LPS (cytoplasm/nucleus) (NFAT5 [7]; 1 μM pre-treatment 1 hour, LPS 1 μg/ml 24 hours): reduced
GI50 at 24 h [8]: 7.16 µM
Inhibition rate of NFAT5 transcription (%) (NFAT5 [9]; 1 μM): 11.2%
Inhibition rate of NFAT5 transcription (%) (NFAT5 [9]; 10 μM): 81.2%
inhibiting NFAT5 activity (in words) (NFAT5 [9]; Table 3 and FIG. 1): remarkably excellent in inhibiting NFAT5 activity
inhibition of NFAT promoter / transcriptional activity (in words) (NFATc): slightly
